Data on 67 molecules can be found in US20200275656A1, “TRISUBSTITUTEDSILYLMETHYLPHENOXYQUINOLINES AND ANALOGUES” (Bayer Aktiengesellschaft, priority 2017, published 2020).

Data set [1] is described as follows: log P determination by HPLC on reversed-phase column (C 18), EEC Directive 79/831 Annex V.A8. The note with it: for chromatographic logP: reversed-phase HPLC column (C 18). Type of data set: physicochemical. How it is done: In table 1, the log P values were determined in accordance with EEC Directive 79/831 Annex V.A8 by HPLC (High Performance Liquid Chromatography) on a reversed-phase column (C 18), using the method described below:
temperature: 40° C.; mobile phases: 0.1% aqueous formic acid and acetonitrile; linear gradient from 10% acetonitrile to 95% acetonitrile; Calibration was carried out using unbranched alkan-2-ones (comprising 3 to 16 carbon atoms) with known log P values (determination of the log P values by the retention times using linear interpolation between two successive alkanones). lambda-max-values were determined using UV-spectra from 200 nm to 400 nm and the peak values of the chromatographic signals.

For a further data set, the system named is Pyricularia oryzae. The data set is described as follows: microbe, parasite or virus in culture. The note with it: 120 h, read-out: efficacy (inhibition of fungal growth). The data set is classed as cell-based.
In data set [2] the test system is Colletotrichum lindemuthianum. The data set is described as follows: Example B: in vitro cell test on Colletotrichum lindemuthianum. Type of data set: cell-based. The note with it: 120 h, 20 ppm of active ingredient, liquid culture, 5 days incubation, read-out: efficacy (inhibition of fungal growth).
Where [3] appears, read: Table 1, HPLC, 40° C., 0.1% aqueous formic acid and acetonitrile.
Where [4] appears, read: Table 2, compounds of formula (IIa), defined as for table 1.

A word on the logP: it is the decadic logarithm of the partition coefficient of the neutral form, usually between octanol and water. Lower therefore signals a more hydrophilic compound. For orientation: chromatographic logP means a lipophilicity value derived from retention on a column. High values mean higher lipophilicity, low ones lower lipophilicity. The inhibition is the drop in the measured response relative to a control, in per cent.

For `C[Si](C)(C)Cc1c(F)cccc1Oc1cnc2c(C(F)(F)F)cccc2c1` [I.45], the logP in data set [1] (setting [3]) turned out to be 6.32.
On the same count and under the same terms, the value for `Cc1nc2ccccc2cc1Oc1ccc(Cl)cc1C[Si](C)(C)C` [I.29] was 5.71.
Take `C[Si](C)(Cc1ccccc1Oc1cnc2c(F)cccc2c1)c1cccs1` [I.46, 3-(2-{[dimethyl(2-thienyl)silyl]methyl}phenoxy)-8-fluoroquinoline]: the chromatographic logP in data set [1] (setting [3]) and in data set [1] (stated in preparation examples) was 5.6 each time. For the same molecule, the inhibition at 20 ppm (with Pyricularia oryzae; in data set [2]) was 90 to 100% each time.
Molecule `C[Si](C)(C)Cc1ccccc1Cc1cnc2ccccc2c1` [I.01] displayed a logP in data set [1] (setting [3]) of 4.28.
Still for that read-out and setting: in the case of `C[Si](C)(C)Cc1cc(Cl)ccc1Nc1cnc2c(C(F)(F)F)cccc2c1` [I.55] it was 6.00; in that of `Cc1cccc2cc(Nc3ccc(F)cc3C[Si](C)(C)c3ccccc3)cnc12` [I.50], 4.90.
The same measure, in the same setting: the value for `C=C[Si](C)(C)Cc1ccccc1Oc1cnc2c(F)cccc2c1` [I.14] was 5.45.
As to `C[Si](C)(Cc1ccccc1Oc1cnc2c(F)cccc2c1)c1ccccc1` [I.40], in data set [1] (setting [3]), the logP is on record as 5.78.
Same read-out and setting: the value for `C[Si](C)(Cc1c(F)cccc1Oc1cnc2ccccc2c1)c1cccs1` [I.47] was 5.65; that for `COc1ccccc1[Si](C)(C)Cc1c(Cl)cccc1Oc1cnc2ccccc2c1` [I.62] was 6.50; that for `Cc1nc2c(F)c(F)ccc2cc1Nc1ccccc1C[Si](C)(C)C` [I.30] was 5.32.
On the same count and under the same terms, the value for `C[Si](C)(O)Cc1c(F)cccc1Oc1cnc2ccccc2c1` [I.13] was 3.15; that for `Cc1nc2c(F)c(F)ccc2nc1Oc1c(F)cccc1C[Si](C)(C)C` [I.36] was 5.87.
Still for that read-out and setting: in the case of `C=C[Si](C)(C)Cc1c(F)cccc1Oc1cnc2ccccc2c1` [I.15] it was 5.57; in that of `Cc1nc2c(F)c(F)ccc2nc1Oc1cccc(Cl)c1C[Si](C)(C)O` [I.49], 4.13; in that of `C[Si](C)(C)Cc1ccccc1Oc1cnc2c(F)cccc2n1` [I.12], 5.26.
`Cc1nc2c(F)c(F)ccc2cc1Oc1ccc(F)cc1C[Si](C)(C)C` [I.34] showed a logP in data set [1] (setting [3]) of 5.92.
On the same count and under the same terms, in the case of `C[Si](C)(C)Cc1c(Cl)cccc1Oc1cnc2c(C(F)(F)F)cccc2n1` [I.57] it was 6.51; in that of `C[Si](C)(O)Cc1ccccc1Cc1cnc2ccccc2c1` [I.03], 2.13.
Take `Cc1nc2c(F)cccc2cc1Oc1ccccc1C[Si](C)(C)C` [I.17, 8-fluoro-2-methyl-3-{2-[(trimethylsilyl)methyl]phenoxy}quinoline]: the chromatographic logP in data set [1] (setting [3]) and in data set [1] (stated in preparation examples) was 5.85 each time.
`COc1ccccc1[Si](C)(C)Cc1c(F)cccc1Oc1cnc2ccccc2c1` [I.61]: in data set [1] (setting [3]), the log partition coefficient (logP) stood at 6.01.
In data set [1] (Table 3, compounds of formula (V), defined as for table 1), `OCc1ccccc1Oc1cnc2c(F)cccc2c1` [V.01, {2-[(8-fluoroquinolin-3-yl)oxy]phenyl}methanol] had a chromatographic logP of 2.17.
`C[Si](C)(C)Cc1c(F)cccc1Oc1cnc2ccccc2c1` [I.11] displayed a logP in data set [1] (setting [3]) of 5.54.
Same read-out and setting: in the case of `C[Si](C)(C)Cc1ccccc1Oc1cnc2c(C(F)(F)F)cccc2c1` [I.35] it was 6.28.
The molecule `Cc1cccc2cc(Oc3cccc(F)c3C[Si](C)(C)C)cnc12` [I.19] had a logP in data set [1] (setting [3]) of 6.70.
Same read-out and setting: in the case of `C[Si](C)(C)Cc1cc(Cl)ccc1Nc1cnc2ccccc2c1` [I.21] it was 4.39; in that of `C[Si](C)(C)Cc1ccccc1Nc1cnc2c(F)cccc2c1` [I.09], 4.77.
Regarding `Cc1nc2ccccc2nc1Oc1ccccc1C[Si](C)(C)C` [I.07], the lipophilicity (logP) in data set [1] (setting [3]) was determined as 5.59.
Take `C[Si](C)(Cc1c(F)cccc1Oc1cnc2ccccc2c1)c1ccccc1` [I.41]: the logP in data set [1] (setting [3]) is reported as 5.91.
On to `Fc1cccc2cc(Oc3ccccc3CBr)cnc12` [IIa.03, 3-[2-(bromomethyl)phenoxy]-8-fluoroquinoline], for which the chromatographic logP in data set [1] (setting [4]) came out at 3.58; in data set [1] (stated in preparation examples) it was 3.65.
`COc1ccc([Si](C)(C)Cc2c(Cl)cccc2Oc2cnc3ccccc3c2)cc1` [I.63] returned a logP in data set [1] (setting [3]) of 6.20.
Still for that read-out and setting: the value for `C[Si](C)(Cc1c(Cl)cccc1Oc1cnc2ccccc2c1)c1cccs1` [I.56] was 6.20; that for `C[Si](C)(C)Cc1ccccc1Nc1cnc2c(F)c(F)ccc2c1` [I.23] was 5.03.
For the molecule `Cc1cccc2cc(Oc3cccc(F)c3C[Si](C)(C)c3ccccc3)cnc12` [I.51], in data set [1] (setting [3]), the logP is listed as 6.90.
Same read-out and setting: in the case of `C[Si](C)(C)Cc1ccccc1Oc1cnc2c(F)c(F)ccc2n1` [I.26] it was 5.54; in that of `C[Si](C)(C)Cc1cc(F)ccc1Nc1cnc2c(C(F)(F)F)cccc2c1` [I.42], 5.54; in that of `C[Si](C)(C)Cc1ccccc1Oc1cnc2c(C(F)(F)F)cccc2n1` [I.37], 5.97.
On the same count and under the same terms, the value for `C=C[Si](C)(C)Cc1c(Cl)cccc1Oc1cnc2ccccc2c1` [I.27] was 6.11.
On the same count and under the same terms, the value for `C[Si](C)(Cc1c(Cl)cccc1Oc1cnc2ccccc2c1)c1ccccc1` [I.53] was 6.43; that for `C[Si](C)(C)Cc1c(Cl)cccc1Oc1cnc2ccccc2c1` [I.22] was 6.17; that for `C[Si](C)(Cc1cc(Cl)ccc1Nc1cnc2ccccc2c1)c1ccccc1` [I.52] was 4.69.
In the case of `ClCc1c(Cl)cccc1Oc1cnc2ccccc2c1` [IIa.01, 3-[3-chloro-2-(chloromethyl)phenoxy]quinoline], the chromatographic logP in data set [1] (setting [4]) is 3.94.
`Cc1cccc2cc(Nc3ccc(Cl)cc3C[Si](C)(C)c3ccccc3)cnc12` [I.58] had a logP in data set [1] (setting [3]) of 5.68.
As for `Cc1nc2ccccc2cc1Oc1ccccc1C[Si](C)(C)C` [I.05, 2-methyl-3-{2-[(trimethylsilyl)methyl]phenoxy}quinoline], the chromatographic logP in data set [1] (setting [3]) and in data set [1] (stated in preparation examples) was 5.05 in each case. Besides, the inhibition at 20 ppm (in the data set on Pyricularia oryzae; in data set [2]) was 90 to 100% in each case.
In data set [1] (setting [3]), `C[Si](C)(C)Cc1c(F)cccc1Oc1cnc2c(C(F)(F)F)cccc2n1` [I.48] registered a logP of 6.04.
On the same count and under the same terms, in the case of `COc1ccc([Si](C)(C)Cc2c(F)cccc2Oc2cnc3ccccc3c2)cc1` [I.60] it was 5.65.
Still for that read-out and setting: in the case of `Cc1nc2c(F)c(F)ccc2nc1Oc1cccc(Cl)c1C[Si](C)(C)C` [I.44] it was 6.40; in that of `C[Si](C)(Cc1cc(F)ccc1Nc1cnc2ccccc2c1)c1ccccc1` [I.39], 3.99.
Same read-out and setting: in the case of `C[Si](C)(C)Cc1cc(F)ccc1Nc1cnc2ccccc2c1` [I.08] it was 3.69.
For `C[Si](C)(C)Cc1ccccc1Oc1cnc2c(F)c(F)ccc2c1` [I.24], in data set [1] (setting [3]), the logP stood at 5.72.
Consider `Fc1cccc(Oc2cnc3ccccc3c2)c1CCl` [IIa.02, 3-[2-(chloromethyl)-3-fluorophenoxy]quinoline], for which, in data set [1] (setting [4]), the chromatographic logP came out at 3.57.
In turn, `Cc1cccc2cc(Oc3ccccc3C[Si](C)(C)c3ccccc3)cnc12` [I.38] gave a logP in data set [1] (setting [3]) of 6.83.
Same read-out and setting: the value for `Cc1cccc2cc(Oc3ccccc3C[Si](C)(C)C)cnc12` [I.06] was 6.60; that for `Cc1nc2ccccc2cc1Oc1cccc(F)c1C[Si](C)(C)C` [I.18] was 5.38.
For `Cc1cccc2cc(Nc3ccc(C[Si](C)(C)C)cc3C[Si](C)(C)C)cnc12` [I.54], the logP in data set [1] (setting [3]) is 6.93.
The same measure, in the same setting: in the case of `Cc1cccc2cc(Nc3ccc(F)cc3C[Si](C)(C)C)cnc12` [I.16] it was 4.56; in that of `COc1ccc([Si](C)(C)Cc2ccccc2Oc2cnc3c(F)cccc3c2)cc1` [I.59], 5.62; in that of `Cc1nc2c(F)c(F)ccc2nc1Oc1ccccc1C[Si](C)(C)C` [I.32], 5.81.
Still for that read-out and setting: in the case of `C[Si](C)(C)Cc1ccc(Nc2cnc3ccccc3c2)c(C[Si](C)(C)C)c1` [I.43] it was 5.85.
For the molecule `C[Si](C)(O)Cc1c(Cl)cccc1Oc1cnc2ccccc2c1` [I.25, [2-chloro-6-(quinolin-3-yloxy)benzyl](dimethyl)silanol], the chromatographic logP in data set [1] (setting [3]) and in data set [1] (stated in preparation examples) was 3.48 in each case. Further, in data set [2], the inhibition at 20 ppm is 90 to 100%.
Turning to `C[Si](C)(C)Cc1ccccc1Oc1cnc2ccccc2c1` [I.02], in data set [1] (setting [3]), the log partition coefficient (logP) came out at 5.48.
The same measure, in the same setting: the value for `C[Si](C)(C)Cc1c(F)cccc1Oc1cnc2c(F)c(F)ccc2n1` [I.33] was 5.60.
On the same count and under the same terms, the value for `C[Si](C)(C)Cc1ccccc1Oc1cnc2c(F)cccc2c1` [I.10] was 5.45.
`Cc1cccc2cc(Nc3ccc(Cl)cc3C[Si](C)(C)C)cnc12` [I.28] returned a logP in data set [1] (setting [3]) of 5.38.
Same read-out and setting: in the case of `Cc1nc2ccccc2cc1Oc1ccc(F)cc1C[Si](C)(C)C` [I.20] it was 5.01.
On the same count and under the same terms, in the case of `C[Si](C)(C)Cc1ccccc1Oc1cnc2ccccc2n1` [I.04] it was 5.36; in that of `C[Si](C)(C)Cc1ccc(Nc2cnc3c(C(F)(F)F)cccc3c2)c(C[Si](C)(C)C)c1` [I.65], 7.36.
